Test results taken from US20160272613A1, “Pyridazinone Derivatives and their use as Herbicides” (BAYER CROPSCIENCE AKTIENGESELLSCHAFT, priority 2013, published 2016).

Legend:
Assay type in all cases: in vivo
Stellaria media [1] = test: Post-emergence herbicidal action against harmful plants; conditions: 80 g/ha, visual score after about 3 weeks vs untreated controls
Protocol: (§1) Seeds of monocotyledonous and dicotyledonous weed and crop plants are laid out in sandy loam in wood-fiber pots, covered with soil and cultivated in a greenhouse under good growth conditions. 2 to 3 weeks after sowing, the trial plants are treated at the one-leaf stage. The compounds of the invention, formulated in the form of wettable powders (WP) or as emulsion concentrates (EC), are then sprayed onto the green parts of the plants in the form of an aqueous suspension or emulsion at a water application rate equating to 600 to 800 I/ha, with addition of 0.2% wetting agent. After the trial plants have been left to stand in a greenhouse under optimal growth conditions for about 3 weeks, the efficacy of the formulations is scored visually in comparison to untreated controls (herbicidal action in percent (%): 100% efficacy=the plants have died, 0% efficacy=like control plants). In this trial, for example, compound no.

Abutilon theophrasti [2] = test: as above; conditions: 80 g/ha, visual score after about 3 weeks vs untreated controls
Protocol: as §1

Veronica persica [3] = test: as above; conditions: 80 g/ha, visual score after about 3 weeks vs untreated controls
Protocol: as §1

Ipomoea purpurea [4] = test: as above; conditions: 80 g/ha, visual score after about 3 weeks vs untreated controls
Protocol: as §1

Viola tricolor [5] = test: as above; conditions: 80 g/ha, visual score after about 3 weeks vs untreated controls
Protocol: as §1

Stellaria media [6] = test: Pre-emergence herbicidal action against harmful plants; conditions: 320 g/ha, visual score after 3 weeks vs untreated controls
Excerpt: (§2) Seeds of monocotyledonous and dicotyledonous weed plants and crop plants are laid out in wood-fiber pots in sandy loam and covered with soil. The compounds of the invention, formulated in the form of wettable powders (WP) or as emulsion concentrates (EC), are then applied to the surface of the covering soil in the form of an aqueous suspension or emulsion at a water application rate equating to 600 to 800 l/ha, with addition of 0.2% wetting agent. After the treatment, the pots are placed in a greenhouse and kept under good growth conditions for the trial plants. The damage to the trial plants is scored visually after a trial duration of 3 weeks by comparison with untreated controls (herbicidal activity in percent (%): 100% efficacy=the plants have died, 0% efficacy=like control plants). In this trial, for example, compound no.

Abutilon theophrasti [7] = test: as above; conditions: 320 g/ha, visual score after 3 weeks vs untreated controls
Excerpt: as §2

Cyperus esculentus = test: as above; conditions: 320 g/ha, visual score after 3 weeks vs untreated controls
Excerpt: as §2

Veronica persica [8] = test: as above; conditions: 320 g/ha, visual score after 3 weeks vs untreated controls
Excerpt: as §2

Ipomoea purpurea [9] = test: as above; conditions: 320 g/ha, visual score after 3 weeks vs untreated controls
Excerpt: as §2

Amaranthus retroflexus = test: as above; conditions: 320 g/ha, visual score after 3 weeks vs untreated controls
Excerpt: as §2

Viola tricolor [10] = test: as above; conditions: 320 g/ha, visual score after 3 weeks vs untreated controls
Excerpt: as §2

Cn1ncc(-c2ccc(C(F)(F)F)c(=O)n2C)c(O)c1=O [1-4, 4-hydroxy-2-methyl-5-(1-methyl-3-(trifluoromethyl)pyrid-2-on-6-yl)-pyridazin-3-one]
at least 80%: herbicidal action in percent (efficacy) (Stellaria media [1]) | herbicidal action in percent (efficacy) (Abutilon theophrasti [2]) | herbicidal action in percent (efficacy) (Veronica persica [3]) | herbicidal action in percent (efficacy) (Ipomoea purpurea [4]) | herbicidal action in percent (efficacy) (Viola tricolor [5]) | herbicidal activity in percent (efficacy) (Stellaria media [6]) | herbicidal activity in percent (efficacy) (Abutilon theophrasti [7]) | herbicidal activity in percent (efficacy) (Cyperus esculentus) | herbicidal activity in percent (efficacy) (Veronica persica [8]) | herbicidal activity in percent (efficacy) (Ipomoea purpurea [9]) | herbicidal activity in percent (efficacy) (Amaranthus retroflexus) | herbicidal activity in percent (efficacy) (Viola tricolor [10])
